From ChEMBL document CHEMBL1144368, “Synthesis of 15R-PGD2: a potential DP2 receptor agonist” (Bioorg Med Chem Lett, 2005)

Assays:
Type in all cases: functional
[1] = biological target: T1, Prostaglandin D2 receptor (Homo sapiens) (UniProt Q13258); assay: Effective concentration for DP1 mediated cAMP formation in platelets
T1 sequence (whole entry): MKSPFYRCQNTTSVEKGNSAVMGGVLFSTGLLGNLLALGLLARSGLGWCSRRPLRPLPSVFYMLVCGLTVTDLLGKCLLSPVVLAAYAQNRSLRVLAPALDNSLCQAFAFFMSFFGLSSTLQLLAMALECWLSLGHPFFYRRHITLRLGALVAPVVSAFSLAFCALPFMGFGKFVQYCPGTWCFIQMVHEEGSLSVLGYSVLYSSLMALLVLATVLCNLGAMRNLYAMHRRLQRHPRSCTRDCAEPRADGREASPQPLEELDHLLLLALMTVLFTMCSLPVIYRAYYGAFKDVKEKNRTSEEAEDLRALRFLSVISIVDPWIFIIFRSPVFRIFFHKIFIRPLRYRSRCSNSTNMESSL

[2] = biological target: T2, Prostaglandin D2 receptor 2 (Homo sapiens, UniProt Q9Y5Y4); assay: Effective concentration for DP2 mediated stimulation of actin polymerization in eosinophils
T2 sequence (Q9Y5Y4 whole entry): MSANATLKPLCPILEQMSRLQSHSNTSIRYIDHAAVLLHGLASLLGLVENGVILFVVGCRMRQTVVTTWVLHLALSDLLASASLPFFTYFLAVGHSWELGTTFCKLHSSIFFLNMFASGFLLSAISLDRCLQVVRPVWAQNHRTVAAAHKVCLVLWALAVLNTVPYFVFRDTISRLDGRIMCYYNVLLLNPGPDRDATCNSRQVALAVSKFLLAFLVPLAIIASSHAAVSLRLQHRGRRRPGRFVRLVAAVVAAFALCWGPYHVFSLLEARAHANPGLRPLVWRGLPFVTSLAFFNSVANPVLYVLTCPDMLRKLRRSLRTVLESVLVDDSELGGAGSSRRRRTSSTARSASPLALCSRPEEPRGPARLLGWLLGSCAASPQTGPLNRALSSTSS

[3] = biological target: T2, Prostaglandin D2 receptor 2; assay: Effective concentration DP2 mediated expression of the adhesion molecule CD11b in eosinophils
[4] = biological target: T1, Prostaglandin D2 receptor (Homo sapiens); assay: Effective concentration for DP1 mediated cAMP formation in platelets was determined at 1 uM
[5] = biological target: T3, Prostaglandin D2 receptor 2 (Homo sapiens) (UniProt Q9Y5Y4); assay: Percentage for DP2 mediated stimulation of actin polymerization in eosinophils was determined at 1 uM; (above control)
T3 sequence (whole entry): T2 sequence (Q9Y5Y4 whole entry)

| Compound | EC10 [1] [nM] | EC50 [2] [nM] | EC50 [3] [nM] | Activity [4] [pmol] | Activity [5] [%] |
| --- | --- | --- | --- | --- | --- |
| CCCCC[C@@](C)(O)/C=C/[C@H]1C(=O)C[C@H](O)[C@@H]1C/C=C/CCCC(=O)O | > 10000 | 3.8 | 1.4 |  |  |
| CCCCC[C@@H](O)/C=C/[C@H]1C(=O)C[C@H](O)[C@@H]1C/C=C/CCCC(=O)O |  |  |  | 0.83 | 83.8 |
| CCCCC[C@](C)(O)/C=C/[C@H]1C(=O)C[C@H](O)[C@@H]1C/C=C/CCCC(=O)O | 2100 | 333 | 99 |  |  |
| CCCCC[C@H](O)/C=C/[C@H]1C(=O)C[C@H](O)[C@@H]1CC=CCCCC(=O)O [[3H]PGD2] | 11 | 13 | 7 | 15.5 | 86.2 |
